{"source": "patent US10738056B2", "about": "(Aduro BioTech, Inc., priority 2017, dated 2020)"}
{"biological_target": "Human cGAS amino acids 155-522 (Homo sapiens (Human), UniProt Q8N884)", "sequence (Q8N884 157-522)": "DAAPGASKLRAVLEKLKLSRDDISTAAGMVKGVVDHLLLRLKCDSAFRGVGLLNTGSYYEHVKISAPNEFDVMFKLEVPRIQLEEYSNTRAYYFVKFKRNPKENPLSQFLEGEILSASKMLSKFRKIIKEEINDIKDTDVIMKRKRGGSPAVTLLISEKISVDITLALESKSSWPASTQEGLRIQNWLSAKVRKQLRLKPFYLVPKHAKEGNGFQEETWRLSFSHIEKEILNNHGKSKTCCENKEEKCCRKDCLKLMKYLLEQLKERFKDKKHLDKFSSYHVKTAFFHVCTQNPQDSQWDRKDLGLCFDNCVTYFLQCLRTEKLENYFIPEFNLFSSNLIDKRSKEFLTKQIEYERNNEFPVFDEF", "test": "cGAS biochemical activity assay (ATP remaining, Kinase-Glo Max luminescence)", "conditions": "human cGAS 155-522, ATP remaining (Kinase-Glo Max); read-out: cGAS IC50", "units": {"IC50": "µM"}}
{"compound": "COc1cccc2oc(-c3c(C)[nH]c4c(-c5ccccn5)c(C(F)(F)F)nn4c3=O)nc12", "note": "[Compound C1127, 6-(4-methoxybenzo[d]oxazol-2-yl)-5-methyl-3-(pyridin-2-yl)-2-(trifluoromethyl)pyrazolo[1,5-a]pyrimidin-7(4H)-one]", "IC50": "20 to 250"}
{"compound": "COc1cccn2nc(-c3c(C)[nH]c4c(-c5ccccc5)c(C(F)(F)F)nn4c3=O)nc12", "note": "[Compound C1110, 6-(8-methoxy-[1,2,4]triazolo[1,5-a]pyridin-2-yl)-5-methyl-3-phenyl-2-(trifluoromethyl)pyrazolo[1,5-a]pyrimidin-7(4H)-one]", "IC50": "20 to 250"}
{"compound": "COc1cccc(NC(=O)c2c(C)[nH]c3c(-c4ccccc4)c(SC)nn3c2=O)c1", "note": "[Compound A1122, N-(3-methoxyphenyl)-5-methyl-2-(methylthio)-7-oxo-3-phenyl-4,7-dihydropyrazolo[1,5-a]pyrimidine-6-carboxamide]", "IC50": "20 to 250"}
{"compound": "Cc1cccc(-c2c(C(F)(F)F)nn3c(=O)c(-c4nc5c(o4)CCCC5)c(C)[nH]c23)c1", "note": "[Compound C1034, 5-methyl-6-(4,5,6,7-tetrahydrobenzo[d]oxazol-2-yl)-3-(m-tolyl)-2-(trifluoromethyl)pyrazolo[1,5-a]pyrimidin-7(4H)-one]", "IC50": "> 250"}
{"compound": "COCCNC(=O)Cc1c(C)[nH]c2c(-c3ccccc3)c(C(F)(F)F)nn2c1=O", "note": "[Compound B1003, N-(2-methoxyethyl)-2-(5-methyl-7-oxo-3-phenyl-2-(trifluoromethyl)-4,7-dihydropyrazolo[1,5-a]pyrimidin-6-yl)acetamide]", "IC50": "> 250"}
{"compound": "COc1ccc(F)cc1NC(=O)c1c(C)[nH]c2c(-c3ccccc3)c(C(F)(F)F)nn2c1=O", "note": "[Compound A1071, N-(5-fluoro-2-methoxyphenyl)-5-methyl-7-oxo-3-phenyl-2-(trifluoromethyl)-4,7-dihydropyrazolo[1,5-a]pyrimidine-6-carboxamide]", "IC50": "20 to 250"}
{"compound": "COc1ccnc(-c2nnc(-c3c(C)[nH]c4c(-c5ccccc5)c(C(F)(F)F)nn4c3=O)o2)n1", "note": "[Compound D1076, 6-(5-(4-methoxypyrimidin-2-yl)-1,3,4-oxadiazol-2-yl)-5-methyl-3-phenyl-2-(trifluoromethyl)pyrazolo[1,5-a]pyrimidin-7(4H)-one]", "IC50": "20 to 250"}
{"compound": "Cc1[nH]c2c(-c3ccccc3)c(C(F)(F)F)nn2c(=O)c1Cc1nnc(C2CCCC2)o1", "note": "[Compound D1034, 6-((5-cyclopentyl-1,3,4-oxadiazol-2-yl)methyl)-5-methyl-3-phenyl-2-(trifluoromethyl)pyrazolo[1,5-a]pyrimidin-7(4H)-one]", "IC50": "20 to 250"}
{"compound": "COc1c(F)cccc1NC(=O)c1c(C)[nH]c2c(-c3ccccc3)c(C(F)(F)F)nn2c1=O", "note": "[Compound A1137, N-(3-fluoro-2-methoxyphenyl)-5-methyl-7-oxo-3-phenyl-2-(trifluoromethyl)-4,7-dihydropyrazolo[1,5-a]pyrimidine-6-carboxamide]", "IC50": "20 to 250"}
{"compound": "Cc1[nH]c2c(-c3ccccc3)c(C(F)(F)F)nn2c(=O)c1-c1nnc(C2CCNCC2)o1", "note": "[Compound D1052, 5-methyl-3-phenyl-6-(5-(piperidin-4-yl)-1,3,4-oxadiazol-2-yl)-2-(trifluoromethyl)pyrazolo[1,5-a]pyrimidin-7(4H)-one]", "IC50": "20 to 250"}
{"compound": "Cc1cccc(-c2c(C)[nH]c3c(-c4ccccc4)c(C(F)(F)F)nn3c2=O)c1", "note": "[Compound C1002, 5-methyl-3-phenyl-6-(m-tolyl)-2-(trifluoromethyl)pyrazolo[1,5-a]pyrimidin-7(4H)-one]", "IC50": "20 to 250"}
{"compound": "Cc1[nH]c2c(-c3ccccc3)c(C(F)(F)F)nn2c(=O)c1C(=O)NC1CCCC1", "note": "[Compound A1008, N-cyclopentyl-5-methyl-7-oxo-3-phenyl-2-(trifluoromethyl)-4,7-dihydropyrazolo[1,5-a]pyrimidine-6-carboxamide]", "IC50": "20 to 250"}
{"compound": "COc1cccc2oc(-c3c(C)[nH]c4c(-c5cccc(C)c5)c(C(F)(F)F)nn4c3=O)nc12", "note": "[Compound C1172, 6-(4-methoxybenzo[d]oxazol-2-yl)-5-methyl-3-(m-tolyl)-2-(trifluoromethyl)pyrazolo[1,5-a]pyrimidin-7(4H)-one]", "IC50": "< 20"}
{"compound": "Cc1[nH]c2c(-c3ccccc3)c(C(F)(F)F)nn2c(=O)c1C(=O)N1CCCCC1", "note": "[Compound A1011, 5-methyl-3-phenyl-6-(piperidine-1-carbonyl)-2-(trifluoromethyl)pyrazolo[1,5-a]pyrimidin-7(4H)-one]", "IC50": "> 250"}
{"compound": "COc1cccc(NCCc2c(C)[nH]c3c(-c4ccccc4)c(C(F)(F)F)nn3c2=O)c1", "note": "[Compound B1015, 6-(2-((3-methoxyphenyl)amino)ethyl)-5-methyl-3-phenyl-2-(trifluoromethyl)pyrazolo[1,5-a]pyrimidin-7(4H)-one]", "IC50": "< 20"}
{"compound": "COCCn1c(-c2c(C)[nH]c3c(-c4ccccc4)c(C(F)(F)F)nn3c2=O)nc2c(OC)cccc21", "note": "[Compound C1200, 6-(4-methoxy-1-(2-methoxyethyl)-1H-benzo[d]imidazol-2-yl)-5-methyl-3-phenyl-2-(trifluoromethyl)pyrazolo[1,5-a]pyrimidin-7(4H)-one]", "IC50": "20 to 250"}
{"compound": "COc1ccccc1-c1c(C(F)(F)F)nn2c(=O)c(-c3nc4c(OC)cccc4o3)c(C)[nH]c12", "note": "[Compound C1086, 6-(4-methoxybenzo[d]oxazol-2-yl)-3-(2-methoxyphenyl)-5-methyl-2-(trifluoromethyl)pyrazolo[1,5-a]pyrimidin-7(4H)-one]", "IC50": "> 250"}
{"compound": "COCc1[nH]c2c(-c3ccccc3)c(C(F)(F)F)nn2c(=O)c1C(=O)Nc1ccccc1OC", "note": "[Compound A1042, 5-(methoxymethyl)-N-(2-methoxyphenyl)-7-oxo-3-phenyl-2-(trifluoromethyl)-4,7-dihydropyrazolo[1,5-a]pyrimidine-6-carboxamide]", "IC50": "20 to 250"}
{"compound": "CNC(=O)COCc1[nH]c2c(-c3ccccc3)c(C(F)(F)F)nn2c(=O)c1-c1nc2c(OC)cccc2o1", "note": "[Compound C1199, 2-((6-(4-methoxybenzo[d]oxazol-2-yl)-7-oxo-3-phenyl-2-(trifluoromethyl)-4,7-dihydropyrazolo[1,5-a]pyrimidin-5-yl)methoxy)-N-methylacetamide]", "IC50": "20 to 250"}
{"compound": "COC1CCN(c2nnc(-c3c(C)[nH]c4c(-c5ccccc5)c(C(F)(F)F)nn4c3=O)o2)C1", "note": "(centres unmarked) [Compound D1037, 6-(5-(3-methoxypyrrolidin-1-yl)-1,3,4-oxadiazol-2-yl)-5-methyl-3-phenyl-2-(trifluoromethyl)pyrazolo[1,5-a]pyrimidin-7(4H)-one]", "IC50": "< 20"}
{"compound": "COCc1nc(-c2c(C)[nH]c3c(-c4ccccc4)c(C(F)(F)F)nn3c2=O)oc1C1CCCCC1", "note": "[Compound C1158, 6-(5-cyclohexyl-4-(methoxymethyl)oxazol-2-yl)-5-methyl-3-phenyl-2-(trifluoromethyl)pyrazolo[1,5-a]pyrimidin-7(4H)-one]", "IC50": "> 250"}
{"compound": "COc1cccc2oc(-c3c(C)[nH]c4c(-c5ccccc5)c(S(C)(=O)=O)nn4c3=O)nc12", "note": "[Compound C1068, 6-(4-methoxybenzo[d]oxazol-2-yl)-5-methyl-2-(methylsulfonyl)-3-phenylpyrazolo[1,5-a]pyrimidin-7(4H)-one]", "IC50": "20 to 250"}
{"compound": "Cc1[nH]c2c(-c3ccccc3)c(C(F)(F)F)nn2c(=O)c1CC(=O)N1CCOCC1", "note": "[Compound B1002, 5-methyl-6-(2-morpholino-2-oxoethyl)-3-phenyl-2-(trifluoromethyl)pyrazolo[1,5-a]pyrimidin-7(4H)-one]", "IC50": "> 250"}
{"compound": "Cc1[nH]c2c(-c3ccccc3)c(C(F)(F)F)nn2c(=O)c1C(=O)N[C@H]1CCNC1", "note": "[Compound A1035, (S)-5-methyl-7-oxo-3-phenyl-N-(pyrrolidin-3-yl)-2-(trifluoromethyl)-4,7-dihydropyrazolo[1,5-a]pyrimidine-6-carboxamide]", "IC50": "> 250"}
{"compound": "Cc1[nH]c2c(-c3ccccc3)c(C(F)(F)F)nn2c(=O)c1C(=O)N1CCOCC1", "note": "[Compound A1004, 5-methyl-6-(morpholine-4-carbonyl)-3-phenyl-2-(trifluoromethyl)pyrazolo[1,5-a]pyrimidin-7(4H)-one]", "IC50": "> 250"}
{"compound": "Cc1[nH]c2c(-c3ccccc3)c(C(F)(F)F)nn2c(=O)c1C(=O)Nc1ccn(C2CCCCC2)n1", "note": "[Compound A1041, N-(1-cyclohexyl-1H-pyrazol-3-yl)-5-methyl-7-oxo-3-phenyl-2-(trifluoromethyl)-4,7-dihydropyrazolo[1,5-a]pyrimidine-6-carboxamide]", "IC50": "20 to 250"}
{"compound": "Cc1[nH]c2c(-c3ccccc3)c(C(F)(F)F)nn2c(=O)c1-c1cnc2ccccc2c1", "note": "[Compound C1007, 5-methyl-3-phenyl-6-(quinolin-3-yl)-2-(trifluoromethyl)pyrazolo[1,5-a]pyrimidin-7(4H)-one]", "IC50": "20 to 250"}
{"compound": "COc1ccc(CN)c2oc(-c3c(C)[nH]c4c(-c5ccccc5)c(C(F)(F)F)nn4c3=O)nc12", "note": "[Compound C1191, 6-(7-(aminomethyl)-4-methoxybenzo[d]oxazol-2-yl)-5-methyl-3-phenyl-2-(trifluoromethyl)pyrazolo[1,5-a]pyrimidin-7(4H)-one]", "IC50": "> 250"}
{"compound": "Cc1[nH]c2c(-c3ccccc3)c(C(F)(F)F)nn2c(=O)c1-c1nnc(C(C)C)o1", "note": "[Compound D1005, 6-(5-isopropyl-1,3,4-oxadiazol-2-yl)-5-methyl-3-phenyl-2-(trifluoromethyl)pyrazolo[1,5-a]pyrimidin-7(4H)-one]", "IC50": "20 to 250"}
{"compound": "Cc1[nH]c2c(-c3ccccc3)c(C(F)(F)F)nn2c(=O)c1-c1nnc(-c2ccc([N+](=O)[O-])cc2)o1", "note": "[Compound D1061, 5-methyl-6-(5-(4-nitrophenyl)-1,3,4-oxadiazol-2-yl)-3-phenyl-2-(trifluoromethyl)pyrazolo[1,5-a]pyrimidin-7(4H)-one]", "IC50": "20 to 250"}
{"compound": "COc1cccc2oc(-c3c(C)[nH]c4c(-c5ccccc5)c(C(C)=O)nn4c3=O)nc12", "note": "[Compound C1210, 2-acetyl-6-(4-methoxybenzo[d]oxazol-2-yl)-5-methyl-3-phenylpyrazolo[1,5-a]pyrimidin-7(4H)-one]", "IC50": "< 20"}
{"compound": "COc1ccc(-c2c(C(F)(F)F)nn3c(=O)c(-c4nc5c(OC)cccc5o4)c(C)[nH]c23)cc1", "note": "[Compound C1115, 6-(4-methoxybenzo[d]oxazol-2-yl)-3-(4-methoxyphenyl)-5-methyl-2-(trifluoromethyl)pyrazolo[1,5-a]pyrimidin-7(4H)-one]", "IC50": "20 to 250"}
